Assay results as given in patent US6057371A, “Sigma receptor ligands and the use thereof” (Virginia Commonwealth University, priority 1992, dated 2000).
Where a name gives a salt, the structure may show the parent alone. Read-outs that look alike come from different tables or passages of the source.

What was measured:
[1] = molecular target: sigma receptor; test: Sigma receptor binding, [^3 H]DTG, brain membranes (both sigma-1 and sigma-2 sites); parameters: species or system guinea pig; details: for IC50: Table 6; for change in sigma affinity, words: Example 6
Description: Sigma receptor binding assays using guinea pig brain membrane homogenates and the radioligand [^3 H]DTG were conducted as described by Weber et al.. […] Briefly, frozen whole guinea-pig brains (Biotrol, Indianapolis, Ind.) were homogenized in 10 volumes (w/v) of ice-cold 320 mM sucrose using a Brinkman polytron. The homogenate was centrifuged at 1,000× g for 20 minutes at 4° C. The supernatant was centrifuged at 20,000× g for 20 minutes at 4° C. The resulting pellet was resuspended in 10 initial volumes of 50 mM Tris/HCl buffer at pH 7.4 and centrifuged at 20,000× g for 20 minutes at 4° C. The resulting pellet was resuspended in 5 initial volumes ice-cold 50 mM Tris/Hcl […], and the final volume was adjusted to yield a protein concentration of 3 mg/ml. Aliquots of 20-ml were stored at -70° C. until used, with no detectable loss of binding.
The protein concentration in the 1-ml final incubation volume was 800 ug/ml, corresponding to 32 mg of brain tissue (original wet weight) and to a tissue concentration within the linear range for specific binding. […] Incubations were terminated after 90 minutes at room temperature by addition of 4 ml of ice-cold 50 mM Tris/HCl (pH 7.4) and rapid filtration of the membrane suspension through Whatman GF/B glass-fiber filters under vacuum, using a 48-well cell harvester (Brandel). The filters were washed 2 times with 4 ml of 50 mM Tris/HCl (pH 7.4). Each filter was suspended in 10 ml Cytoscint (ICI), and radioactivity was measured by liquid scintillation spectrometry at a counting efficiency of approximately 50%. IC50 values were determined by non-linear regression analyis.
Further sigma receptor binding assays against [^3 H]DTG and 5HT-1A binding assays were conducted according to the procedure outlined in the previous examples.
Radioligand Binding. […] Briefly, membranes (P2 microsomal fraction) were diluted 1:3 with 50 mM Tris HCl (pH 7.4) and 0.4 mL was combined with 50 μL [^3 H]DTG (1-2 nM final concentration) and 50 μL of competing drug or buffer. After 90 min at room temperature, incubation was terminated by rapid filtration under vacuum through Whatman GF/B glass fiber filters using a Brandel 48-well cell harvester. Filters were washed three times with 5 mL of cold Tris HCl buffer and each filter was suspended in 5 mL of Cytoscint (ICN Biomedical). Radioactivity was measured by liquid scintillation spectrometry at a counting efficiency of 50%.

[2] = molecular target: T1, sigma-1 binding site (Cavia porcellus, UniProt Q60492); test: biochemical; parameters: species or system guinea pig; details: SIGMA-1 KI vs. 3H-PENTAZOCINE MEAN
T1 construct: Guinea pig whole membrane preparations (P2 microsomal fraction); from tissue; host or cells: guinea pig membranes (P2 microsomal fraction), as described by Weber et al; brain inferred from the sister test b489
Description: [^3 H]DTG was purchased from DuPont/NEN.
The radioactivity on the filters was determined by scintillation spectrometry at an efficiency of about 50% using Cytoscint (ICN) scintillation fluid.

[3] = running text, Examples 5 and 6, read-out: sigma receptor Ki
[4] = Table 7, Phenyl-(CH2)x -NH--(CH2)y -Phenyl, read-out: Ki

T1 sequence (Q60492 whole entry): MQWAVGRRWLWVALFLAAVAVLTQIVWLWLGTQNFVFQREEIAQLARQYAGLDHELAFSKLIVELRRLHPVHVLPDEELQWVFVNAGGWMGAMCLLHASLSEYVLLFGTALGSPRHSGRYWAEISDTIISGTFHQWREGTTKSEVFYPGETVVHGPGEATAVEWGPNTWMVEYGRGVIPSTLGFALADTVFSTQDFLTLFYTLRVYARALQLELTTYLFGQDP

Row | Compound | IC50 ([1]; [^3 H]DTG) [nM] | other results
1 | C(CCNCC1CCCCC1)CCC1CCCCC1 [Compound 151, H-Cyclohexylmethyl-5-cyclohexylpentylamine Hydrochloride] | 1.39 | –
2 | O=C(c1ccccc1)N1CCNCC1 [Compound 54] | 11800 | –
3 | O=C(CCCCN1CCC(c2ccc(Cl)cc2)CC1)c1ccc(Cl)cc1 [Compound 183] | 1.97 | –
4 | COc1ccccc1CCNCCCCCc1ccccc1 [Compound 144] | 4.39 | –
5 | CCCNC1CCc2ccccc2C1 (centres unmarked) [Compound 63] | 763 | –
6 | CN(CCc1ccccc1)CCc1ccccc1 [Compound 108] | 37.9 | –
7 | O=C1c2ccccc2C(=O)N1CCCCN1CCN(Cc2ccccc2)CC1 [Compound 119] | 21.4 | –
8 | N-(3-phenylpropyl)isopropylamine | – | Ki [1, 3]: 22 nM
9 | CN(CCCCCc1ccccc1)CCCc1ccccc1 [Compound 136] | 1.78 | change in sigma affinity, words [1]: doubles affinity
10 | O=C(CCCCN1CCC(c2ccccc2)CC1)c1ccc(Cl)cc1 [Compound 160] | 0.62 | –
11 | COc1cccc(C(=O)CCCCN2CCCCC2)c1 [Compound 169] | 22.8 | –
12 | CCCC(Cc1ccccc1)NCCCc1ccccc1 (centres unmarked) [Compound 100] | 25.6 | –
13 | c1ccc(CCCCCN2CCN(CCCCCc3ccccc3)CC2)cc1 [Compound 138] | 2.67 | –
14 | CN1C2CCC1CC(O)(c1ccccc1)C2 (centres unmarked) [Compound 154] | 3960 | –
15 | CCCN(CCCc1ccccc1)[C@@H](C)Cc1ccccc1 [Compound 133] | 6.44 | –
16 | COc1ccc(CCCCCN2CCC(c3ccccc3)CC2)cc1 [Compound 165] | 1.27 | –
17 | O=C(CCCCN1CCC(c2ccc(Cl)cc2)CC1)c1ccc(Cl)c(Cl)c1 [Compound 184] | 1.98 | –
18 | O=C(CCCCN1CCCCC1)C1CCCC1 [Compound 189] | 13.5 | –
19 | c1ccc(CCCNCCc2ccc3ccccc3c2)cc1 [Compound 88] | 53.4 | –
20 | CCN1CCC[C@H]1CNC(=O)c1c(OC)ccc(Br)c1OC [Remoxipride, reference compound] | – | Ki [2]: 312 nM
21 | c1ccc(CNCc2ccccc2)cc1 [Compound 109] | 184 | –
22 | C1CCC(CCCCCN2CCCCC2)CC1 [Compound 150] | 0.96 | –
23 | c1ccc(CCCCCN2CC3CCC(CC3)C2)cc1 [Compound 190] | 1.07 | –
24 | OC1(c2ccccc2)CCNC1 (centres unmarked) [Compound 157] | 6110 | –

Row | Compound | IC50 ([1]; [^3 H]DTG) [nM] | other results
25 | c1ccc(CNCc2ccccc2)cc1 [x=1, y=1] | – | Ki [1, 4]: 175 nM
26 | CN1CCc2ccccc2C(c2ccccc2)C1 (centres unmarked) [Compound 102] | 6690 | –
27 | O=C(CCCCN1CCCCC1)c1ccc(F)cc1 [Compound 177] | 7.37 | –
28 | CCCc1ccc(CC(C)N(C)CCCc2ccccc2)cc1 (centres unmarked) | – | affinity for the sigma receptor, words ([1]; Example 5): highest and most selective affinity for the sigma receptor
29 | c1ccc(CCCCCCNCCCc2ccccc2)cc1 [x=3, y=6] | – | Ki [1, 4]: 2.6 nM
30 | O=C(CCCCN1CCCCC1)c1cccc(Cl)c1 [Compound 170] | 4.18 | –
31 | CC(C)(C)C1(O)CCN(CCc2ccccc2)CC1 [Compound 149] | 21.5 | –
32 | COc1ccccc1C1(O)CCNCC1 [Compound 61] | 14800 | –
33 | c1ccc(C2CCNCC2)cc1 [Compound 58] | 2050 | –
34 | CCN(CC)CCOC(=O)C(c1ccccc1)c1ccccc1 [Compound 187] | 50.6 | –
35 | O=C(CCCN1CCC2(CC1)C(=O)NCN2c1ccccc1)c1ccc(F)cc1 [Spiperone, reference compound] | – | Ki [2]: 10000 nM
36 | COc1ccc(C(=O)CCCCN2CCC(c3ccccc3)CC2)cc1 [Compound 162] | 0.9 | –
37 | COc1ccc(CCNCCCCCc2ccccc2)cc1 [Compound 146] | 2.38 | –
38 | c1ccc(CN2CCCCC2)cc1 [Compound 147] | 117 | –
39 | OC1(c2ccccc2)CC2CCC(C1)N2CCCCCc1ccccc1 (centres unmarked) [Compound 153] | 2.21 | –
40 | c1ccc(CCCCNCCCCc2ccccc2)cc1 [x=4, y=4] | – | Ki [1, 4]: 6.7 nM
41 | CN1CCC(OC(c2ccccc2)c2ccccc2)CC1 [Compound 186] | 656 | –
42 | OC1(c2ccccc2)CCN(CCc2ccccc2)CC1 [Compound 148] | 6.43 | –
43 | O=C1c2ccccc2C(=O)N1CCN1CCN(c2ccccc2)CC1 [Compound 95] | 17000 | –
44 | Clc1ccc(CCCCCN2CCC(c3ccccc3)CC2)cc1 [Compound 167] | 1.96 | –
45 | CCCN(C)CCCCCc1ccccc1 [Compound 122] | – | Ki [1, 3]: 2.4 nM
46 | COc1cccc(CCNCCCCCc2ccccc2)c1 [Compound 145] | 1.63 | –
47 | CCCCCCN(C)CCc1ccccc1 [Compound 130, N-Methyl-N-hexyl-2-phenylethylamine Hydrogen Oxalate] | 4.23 | Ki [1, 3]: 3.8 nM
48 | C(/C=C/c1ccc2c(c1)OCO2)=C\CN1CCCCC1 [Compound 191] | 8.14 | –

Row | Compound | IC50 ([1]; [^3 H]DTG) [nM] | other results
49 | Oc1cccc(CCNCCCCCc2ccccc2)c1 [Compound 172, N-[2-(3-hydroxyphenyl)ethyl]-5-phenylpentylamine Hydrobromide] | 7.46 | –
50 | c1ccc(CCCCNCCCc2ccccc2)cc1 [x=3, y=4] | – | Ki [1, 4]: 7 nM
51 | COc1ccc(C(=O)CCCCN2CCCCC2)cc1 [Compound 161] | 10.9 | –
52 | O=C(CCCCN1CC=C(c2ccc(Cl)cc2)CC1)c1ccc(Cl)cc1 [Compound 182] | 4.68 | –
53 | O=C(CCCCN1CCC(c2ccccc2)CC1)c1cccc(Cl)c1 [Compound 171] | 1.19 | –
54 | CN1CCC(O)(c2ccc(Cl)cc2)CC1 [Compound 156] | 131 | –
55 | O=C(CCCN1CCCCC1)c1ccc(F)cc1 [Compound 175] | 42.9 | –
56 | COc1ccc(CCCCCN2CCCCC2)cc1 [Compound 164] | 5.19 | –
57 | CCC[C@@H](Cc1ccccc1)N(C)CCCc1ccccc1 [Compound 116] | 10.1 | –
58 | CN1CCC(O)(c2ccccc2)CC1 [Compound 155] | 1870 | –
59 | O=C(CCCCN1CCC(c2ccccc2)CC1)c1ccccc1 [Compound 166] | 1.03 | –
60 | CCN(CC)CCOC(=O)C1c2ccccc2-c2ccccc21 [Compound 188] | 174 | –
61 | CCCCCCN(C)CCC [Compound 131, N-Methyl-N-propylhexylamine Hydrogen Oxalate] | 46.9 | Ki [1, 3]: 45 nM
62 | O=C(CCCCN1CCC(c2ccc(F)cc2)CC1)c1ccc(Cl)cc1 [Compound 181] | 1.08 | –
63 | O=C(CCCCN1CCCCC1)c1ccc(Cl)cc1 [Compound 159] | 1.3 | –
64 | c1cnc(N2CCNCC2)nc1 [Compound 107] | 10000 | –
65 | O=C(CCCCN1CC=C(c2ccc(F)cc2)CC1)c1ccc(Cl)cc1 [Compound 180] | 2.24 | –
66 | O=C(CCCCN1CCC(O)(c2ccc(Cl)cc2)CC1)c1ccc(F)cc1 [Compound 179] | 2.82 | –
67 | CN(CCCCCC1CCCCC1)CC1CCCCC1.Cl [Compound 152, N-Methyl-N-cyclohexylmethyl-5-cyclohexylpentylamine Hydrochloride] | 1.76 | change in sigma affinity, words [1]: doubles affinity
68 | O=C(CCCCN1CCC(c2ccccc2)CC1)c1ccc(F)cc1 [Compound 178] | 0.896 | –
69 | Oc1ccccc1CCNCCCCCc1ccccc1 [Compound 173] | 17.2 | –
70 | O=C(O)C(=O)O.c1ccc(CCCCCNc2ccccc2)cc1 [Compound 135, N-Phenyl-5-phenyl pentyl amine Hydrogen Oxal ate] | 13.5 | change in sigma receptor affinity vs. analog ([1]; Examples 5 and 6, [^3 H]DTG): 6 fold; Ki [1, 3]: 12 nM
71 | COc1cccc(C(=O)CCCCN2CCC(c3ccccc3)CC2)c1 [Compound 174] | 1.1 | –
